Reference: ChEMBL document CHEMBL5260799, “Pterocarpan scaffold: A natural lead molecule with diverse pharmacological properties” (Eur J Med Chem, 2017)
Converted amounts (≈) assume the structure as drawn.

Legend:
[1] = Inhibition of melanin in human melanocyte; assay type: functional, cell-based
[2] = tested on: CCRF-CEM; test: Cytotoxicity against human CCRF-CEM cells assessed as reduction in cell viability incubated for 72 hrs by MTT assay; assay type: functional, cell-based
[3] = organism: Mus musculus; test: Reduction in hepatic steatosis in HFD-induced C57BL/6J mouse model assessed as reduction in serum LDL level […]; assay type: functional, organism-based
[4] = target: Neuraminidase (Influenza A virus, UniProt B4URF0); test: Inhibition of Influenza A virus H5N1 neuraminidase
[5] = tested on: MOLT-4; test: Antiproliferative activity against human MOLT-4 cells assessed as reduction in cell proliferation measured after 24 hrs by MTT assay; assay type: functional, cell-based; details: MOLT-4, 24 h
[6] = tested on: Jurkat; test: Antiproliferative activity against human Jurkat cells assessed as reduction in cell proliferation measured after 24 hrs by MTT assay; assay type: functional, cell-based
[7] = tested on: HL-60; test: Antiproliferative activity against human HL-60 cells assessed as reduction in cell viability at 2.5 ug/ml by tryphan blue staining assay; assay type: functional; details: dose 2.5 µg/ml
[8] = Antiproliferative activity against human PBMC cells assessed as reduction in cell viability at 10 microg/ml measured after 72 hrs by MTT assay; assay type: toxicity, cell-based; details: at 10 µg/mL
[9] = tested on: HL-60; test: Antiproliferative activity against human HL-60 cells assessed as reduction in cell proliferation measured after 36 hrs by MTT assay; assay type: functional, cell-based; details: HL-60, 36 h
[10] = tested on: MCF7; test: Antiproliferative activity against human MCF7 cells assessed as growth inhibition measured after 48 hrs by CellTiter-Blue assay; assay type: functional, cell-based; details: MCF7, 48 h
[11] = tested on: K562; test: Antiproliferative activity against human K562 cells assessed as reduction in cell proliferation measured after 36 hrs by MTT assay; assay type: functional, cell-based; details: K562, 36 h
[12] = tested on: HL-60; test: Antiproliferative activity against human HL-60 cells assessed as reduction in cell viability at 1.25 ug/ml by tryphan blue staining assay; assay type: functional; details: dose 1.25 µg/ml
[13] = tested on: MCF7; test: Antiproliferative activity against human MCF7 cells assessed as inhibition of cell proliferation incubated for 72 hrs by MTT assay; assay type: functional, cell-based; details: MCF7, 72 h
[14] = tested on: MDA-MB-231; test: Cytotoxicity against human MDA-MB-231 assessed as reduction in cell viability by MTT assay; assay type: functional, cell-based
[15] = tested on: HeLa; test: Cytotoxicity against human HeLa cells assessed as reduction in cell viability by MTT assay; assay type: functional, cell-based
[16] = tested on: RAW264.7; test: Antiinflammatory activity in mouse RAW264.7 cells assessed as inhibition of LPS-induced NO production at 50 uM measured after 24 hrs by Griess method; assay type: functional, cell-based; details: RAW264.7, 24 h
[17] = Cytotoxicity activity against human Lucena 1 cells assessed as reduction in cell viability […] measured after 72 hrs by MTT assay; assay type: functional, cell-based; details: Lucena 1, 72 h
[18] = tested on: K562; test: Cytotoxicity activity against human K562 cells assessed as reduction in cell viability […] measured after 72 hrs by MTT assay; assay type: functional, cell-based; details: K562, 72 h
[19] = tested on: A2780; test: Antiproliferative activity against human A2780 cells assessed as reduction in cell viability incubated for 96 hrs by MTT assay; assay type: functional, cell-based; details: A2780, 96 h
[20] = tested on: HL-60; test: Antiproliferative activity against human HL-60 cells assessed as reduction in cell viability at 12.5 ug/ml by tryphan blue staining assay; assay type: functional; details: dose 12.5 µg/ml
[21] = Cytotoxicity against mouse RAW264.7 cells assessed as increase in NO production measured after 48 hrs by MTT assay; assay type: toxicity, cell-based
[22] = tested on: Streptococcus agalactiae; test: Antibacterial activity against Streptococcus agalactiae ATCC 12386 assessed as reduction in bacterial growth by microbroth dilution method; assay type: functional
[23] = tested on: Mycobacterium tuberculosis; test: Antimycobacterial activity against Mycobacterium tuberculosis H37Rv assessed as inhibition of bacterial growth by Microplate alamar blue assay; assay type: functional, organism-based
[24] = tested on: Plasmodium falciparum; test: Antiplasmodial activity against Plasmodium falciparum K1 assessed as reduction in parasite growth by fluorescence based assay; assay type: functional, organism-based
[25] = tested on: KB; test: Cytotoxicity against human KB cells assessed as reduction in cell viability by colorimetric assay; assay type: functional, cell-based
[26] = tested on: Breast carcinoma cell; test: Cytotoxicity against human Breast carcinoma cell assessed as reduction in cell viability by colorimetric assay; assay type: functional, cell-based
[27] = tested on: Staphylococcus aureus; test: Antibacterial activity against methicillin-resitant Staphylococcus aureus N1 assessed as reduction in bacterial growth by microbroth dilution method; assay type: functional
[28] = tested on: Staphylococcus aureus; test: Antibacterial activity against Staphylococcus aureus ATCC 25923 assessed as bacterial growth inhibition by broth dilution method; assay type: functional, organism-based
[29] = tested on: Staphylococcus aureus; test: Antibacterial activity against methicillin-resistant Staphylococcus aureus ATCC 25923 assessed as bacterial growth inhibition by broth dilution method; assay type: functional, organism-based

Neuraminidase, sequence (B4URF0 whole entry): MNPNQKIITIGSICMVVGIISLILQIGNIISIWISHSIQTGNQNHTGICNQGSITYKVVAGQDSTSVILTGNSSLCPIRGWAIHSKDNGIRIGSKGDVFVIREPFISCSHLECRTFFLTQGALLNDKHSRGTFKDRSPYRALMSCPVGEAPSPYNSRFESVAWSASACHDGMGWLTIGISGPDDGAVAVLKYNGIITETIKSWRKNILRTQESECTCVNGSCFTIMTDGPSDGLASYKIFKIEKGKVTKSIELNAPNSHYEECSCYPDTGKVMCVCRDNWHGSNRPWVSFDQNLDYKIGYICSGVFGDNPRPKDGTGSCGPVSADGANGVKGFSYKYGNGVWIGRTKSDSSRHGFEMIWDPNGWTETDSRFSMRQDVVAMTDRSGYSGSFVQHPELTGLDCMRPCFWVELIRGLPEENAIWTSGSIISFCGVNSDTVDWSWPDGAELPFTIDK

SMILES: CC(C)=CCc1cc2c(cc1O)OC[C@H]1c3c4c(c(O)c(CC=C(C)C)c3O[C@@H]21)OC(C)(C)CC4
- IC50 [1]: 0.4 µM

SMILES: COc1ccc2c(c1CC=C(C)C)O[C@H]1c3ccc(O)cc3OC[C@@]21O [ERYTHRABYSSIN I]
- IC50 [2]: 3.36 µM

SMILES: O=c1oc2cc(O)ccc2c2oc3cc(O)ccc3c12 [COUMESTROL]
- IC50 [3]: 0.9 µM
- IC50 [4]: 37.8 µM

SMILES: COc1ccc2c(c1)O[C@@H]1c3cc(OC)c(OC)cc3OC[C@H]21
- IC50 [5]: 45.9 µg/mL (≈ 146 µM)
- IC50 [6]: > 10 µg/mL
- Activity [7]: 42.6%
- inhibition at 72 h, 10 microg/ml [8]: 19%
- IC50 [9]: 2.5 µg/mL (≈ 7.95 µM)
- IC50 [10]: 8 µM
- IC50 [11]: 2.8 µg/mL (≈ 8.91 µM)
- Activity [12]: 34.4%

SMILES: O=C1c2ccccc2C(=O)C2C1OCC1c3cc(OCc4ccccc4)c(OCc4ccccc4)cc3OC12 (centres undefined)
- IC50 [13]: > 100 µM

SMILES: O=C1c2ccccc2C(=O)C2C1OCC1c3cc(O)c(O)cc3OC12 (centres undefined)
- IC50 [13]: 115 µM

SMILES: CC(C)=CCc1c(O)c(C)cc2c1O[C@H]1c3cc4c(cc3OC[C@@H]21)OC(C)(C)C=C4 [LESPECYRTIN E5]
- IC50 [1]: 1.5 µM

SMILES: O=c1cccc2n1C[C@@H]1C[C@H]2CN(Cc2c(O)ccc3c2OC[C@H]2c4cc5c(cc4O[C@@H]32)OCO5)C1
- IC50 [14]: 48.9 µM
- IC50 [15]: 24.3 µM

SMILES: CC/C=C/OC[C@H]1O[C@H](Oc2ccc3c(c2)OC[C@H]2c4ccc(OC)c(OC)c4O[C@@H]32)[C@H](O)[C@@H](O)[C@@H]1O
- EC50 [16]: 19.2 µM

SMILES: COc1cc2c(cc1O)O[C@@H]1C3=C(OC[C@H]21)C(=O)c1ccccc1C3=O
- IC50 [17]: 4.49 µM
- IC50 [18]: 4.5 µM

SMILES: C=C(C)[C@@H]1Cc2cc3c(cc2O1)OC[C@@]1(O)c2ccc(O)cc2O[C@@H]31 [GLYCEOLLIN III]
- IC50 [3]: 45 µM

SMILES: O=C1C2=C(C(=O)c3ccccc31)[C@H]1Oc3cc4c(cc3[C@H]1CO2)OCO4
- IC50 [17]: 5.47 µM
- IC50 [18]: 4.63 µM

SMILES: C=C(CO)[C@H]1Cc2cc3c(cc2O1)OC[C@H]1c2cc4c(cc2O[C@@H]31)OCO4
- IC50 [19]: > 54.4 µM

SMILES: COc1ccc2c(c1)O[C@@H]1c3ccc(O)c(O)c3OC[C@H]21
- Activity [20]: 72.1%

SMILES: C=C(C)[C@H]1Cc2cc3c(cc2O1)OC[C@@H]1c2ccc(OC)c(O)c2O[C@H]31
- IC50 [19]: 23.2 µM

SMILES: CC(=O)/C(C)=C/c1c(O)ccc2c1O[C@H]1c3ccc(O)cc3OC[C@@H]21
- IC50 at 48 h [21]: 19 µM

SMILES: COc1ccc2c(c1OC)O[C@H]1c3ccc(O[C@H]4O[C@H](CO)[C@@H](O)[C@H](O)[C@H]4O)cc3OC[C@@H]21
- EC50 [16]: 14.7 µM

SMILES: COc1ccc2c(c1)OC[C@H]1c3cc(O)c(OC)c(CC=C(C)C)c3O[C@@H]21 [LESPEFLORIN G8]
- IC50 [1]: 1.63 µM

SMILES: COc1ccc2c(c1OC)O[C@H]1c3ccc(O[C@H]4O[C@H](COC(C)=O)[C@@H](O)[C@H](O)[C@H]4O)cc3OC[C@@H]21
- EC50 [16]: 28.7 µM

SMILES: CC(C)=CCc1cc2c(cc1O)OC[C@H]1c3ccc(O)c(CC=C(C)C)c3O[C@@H]21 [ERYBRAEDIN C]
- MIC [22]: 0.78 µg/mL (≈ 1.99 µM)
- IC50 [23]: 50 µg/mL (≈ 127 µM)
- IC50 [24]: 5.5 µg/mL (≈ 14 µM)
- IC50 [25]: 5.1 µg/mL (≈ 13 µM)
- IC50 [26]: 2.9 µg/mL (≈ 7.39 µM)

SMILES: COc1cc2c(cc1OCc1ccccc1)OC1C2COC2C(=O)c3ccccc3C(=O)C21 (centres undefined)
- IC50 [13]: 27.7 µM

SMILES: O=C1c2ccccc2C(=O)C2C1OCC1c3cc4c(cc3OC12)OCO4 (centres undefined)
- IC50 [13]: 29 µM

SMILES: COc1ccc2c(c1CC=C(C)C)O[C@H]1c3cc(CC=C(C)C)c(O)cc3OC[C@@]21O [ERYSTAGALLIN A]
- MIC [27]: 0.78 µg/mL (≈ 1.85 µM)
- IC50 [23]: 12.5 µg/mL (≈ 29.6 µM)
- IC50 [24]: 3.8 µg/mL (≈ 8.99 µM)

SMILES: COc1ccc2c(c1CC=C(C)C)O[C@H]1c3ccc(C)cc3OC[C@@]21O
- IC50 [28]: 64 µg/mL (≈ 182 µM)
- IC50 [29]: 64 µg/mL (≈ 182 µM)

SMILES: COc1ccc2c(c1CC=C(C)C)O[C@H]1c3ccc(O)cc3OC[C@@]21OC [ERYTHRIBYSSIN A]
- IC50 [28]: 64 µg/mL (≈ 174 µM)
- IC50 [29]: 32 µg/mL (≈ 86.9 µM)
